# Reference: US10669240B2, “5-substituted indazole-3-carboxamides and preparation and use thereof” (Samumed, LLC, priority 2014, dated 2020)
# Molecular target: DYRK1A (Homo sapiens (Human), UniProt Q13627)
# Test: DYRK1A activity Tau assay: pSer396 Tau in SH-SY5Y cells by ELISA / western blot
# Assay type: cell-based
# Conditions: overnight (16-18 h) exposure
row,EC50 [nM],SMILES
1,491,"CN(C)Cc1cncc(-c2ccc3[nH]nc(C(=O)NC(C)(C)C)c3c2)c1 [Compound 1198, N-(tert-Butyl)-5-(5-((dimethylamino)methyl)pyridin-3-yl)-1H-indazole-3-carboxamide]"
2,374,"CC(C)(C)NC(=O)c1n[nH]c2ccc(-c3cncc(CN4CCCC4)c3)cc12 [Compound 1200, N-(tert-Butyl)-5-(5-(pyrrolidin-1-ylmethyl)pyridin-3-yl)-1H-indazole-3-carboxamide]"
3,144,"CC(C)(C)NC(=O)c1n[nH]c2ccc(-c3cncc(CN4CCCCC4)c3)cc12 [Compound 1202, N-(tert-Butyl)-5-(5-(piperidin-1-ylmethyl)pyridin-3-yl)-1H-indazole-3-carboxamide]"
4,207,"CC(C)(C)NC(=O)c1n[nH]c2ccc(-c3cncc(CN4CCC4)c3)cc12 [Compound 1206, 5-(5-(Azetidin-1-ylmethyl)pyridin-3-yl)-N-(tert-butyl)-1H-indazole-3-carboxamide]"
5,128,"CC(C)(C)NC(=O)c1n[nH]c2ccc(-c3cncc(CN4CC(F)(F)C4)c3)cc12 [Compound 1210, N-(tert-Butyl)-5-(5-((3,3-difluoroazetidin-1-yl)methyl)pyridin-3-yl)-1H-indazole-3-carboxamide]"
6,419,"CC(C)(C)NC(=O)c1n[nH]c2ccc(-c3cncc(N4CCCC4)c3)cc12 [Compound 1214, N-(tert-Butyl)-5-(5-(pyrrolidin-1-yl)pyridin-3-yl)-1H-indazole-3-carboxamide]"
7,199,"CCC(CC)NC(=O)c1n[nH]c2ccc(-c3cncc(N4CCCC4)c3)cc12 [Compound 1215, N-(Pentan-3-yl)-5-(5-(pyrrolidin-1-yl)pyridin-3-yl)-1H-indazole-3-carboxamide]"
8,25,"CC(C)NC(=O)c1n[nH]c2ccc(-c3cncc(N4CCCC4)c3)cc12 [Compound 1245, N-Isopropyl-5-(5-(pyrrolidin-1-yl)pyridin-3-yl)-1H-indazole-3-carboxamide]"
9,45,"CCN(CC)Cc1cncc(-c2ccc3[nH]nc(C(=O)NC(C)C)c3c2)c1 [Compound 1246, 5-(5-((Diethylamino)methyl)pyridin-3-yl)-N-isopropyl-1H-indazole-3-carboxamide]"
10,53,"CC(C)NC(=O)c1n[nH]c2ccc(-c3cncc(Cl)c3)cc12 [Compound 1247, 5-(5-Chloropyridin-3-yl)-N-isopropyl-1H-indazole-3-carboxamide]"
11,174,"CC(C)NC(=O)c1n[nH]c2ccc(-c3cncnc3)cc12 [Compound 1248, N-Isopropyl-5-(pyrimidin-5-yl)-1H-indazole-3-carboxamide]"
12,148,"CC(C)NC(=O)c1n[nH]c2ccc(-c3cncc4ccccc34)cc12 [Compound 1249, N-Isopropyl-5-(isoquinolin-4-yl)-1H-indazole-3-carboxamide]"
13,49,"CC(C)NC(=O)c1n[nH]c2ccc(-c3cncc(F)c3)cc12 [Compound 1250, 5-(5-Fluoropyridin-3-yl)-N-isopropyl-1H-indazole-3-carboxamide]"
14,45,"CC(C)NC(=O)c1n[nH]c2cc(F)c(-c3cncc(F)c3)cc12 [Compound 1251, 6-Fluoro-5-(5-fluoropyridin-3-yl)-N-isopropyl-1H-indazole-3-carboxamide]"
15,421,"CCN(CC)Cc1cncc(-c2ccc3[nH]nc(C(=O)NC(C)(C)C)c3c2)c1 [Compound 1252, N-(tert-Butyl)-5-(5-((diethylamino)methyl)pyridin-3-yl)-1H-indazole-3-carboxamide]"
16,150,"CC(C)(C)NC(=O)c1n[nH]c2ccc(-c3cccnc3)cc12 [Compound 1253, N-(tert-Butyl)-5-(pyridin-3-yl)-1H-indazole-3-carboxamide]"

row,EC50 [nM],SMILES
1,9,"CC(C)CNC(=O)c1n[nH]c2ccc(-c3cccnc3)cc12 [Compound 1254, N-Isobutyl-5-(pyridin-3-yl)-1H-indazole-3-carboxamide]"
2,35,"CC(C)CNC(=O)c1n[nH]c2ccc(-c3cncc(Cl)c3)cc12 [Compound 1255, 5-(5-Chloropyridin-3-yl)-N-isobutyl-1H-indazole-3-carboxamide]"
3,122,"CC[C@@H](C)NC(=O)c1n[nH]c2ccc(-c3cncc(Cl)c3)cc12 [Compound 1256, (R)—N-(sec-butyl)-5-(5-chloropyridin-3-yl)-1H-indazole-3-carboxamide]"
4,14,"CC[C@@H](C)NC(=O)c1n[nH]c2ccc(-c3cccnc3)cc12 [Compound 1257, (R)—N-(sec-butyl)-5-(pyridin-3-yl)-1H-indazole-3-carboxamide]"
5,20,"CC[C@H](C)NC(=O)c1n[nH]c2ccc(-c3cccnc3)cc12 [Compound 1258, (S)—N-(sec-butyl)-5-(pyridin-3-yl)-1H-indazole-3-carboxamide]"
6,135,"CN(C)CCCNC(=O)c1n[nH]c2ccc(-c3cccc(F)c3F)cc12 [Compound 1260, 5-(2,3-Difluorophenyl)-N-(3-(dimethylamino)propyl)-1H-indazole-3-carboxamide]"
7,75,"O=C(NCCN1CCCCC1)c1n[nH]c2ccc(-c3cccc(F)c3F)cc12 [Compound 1266, 5-(2,3-Difluorophenyl)-N-(2-(piperidin-1-yl)ethyl)-1H-indazole-3-carboxamide]"
8,23,"O=C(NCCN1CCOCC1)c1n[nH]c2ccc(-c3cccc(F)c3F)cc12 [Compound 1268, 5-(2,3-Difluorophenyl)-N-(2-morpholinoethyl)-1H-indazole-3-carboxamide]"
9,7,"CCN(CC)Cc1cncc(-c2ccc3[nH]nc(C(=O)NC4CC4)c3c2)c1 [Compound 1270, N-Cyclopropyl-5-(5-((diethylamino)methyl)pyridin-3-yl)-1H-indazole-3-carboxamide]"
10,19,"O=C(NC1CC1)c1n[nH]c2ccc(-c3cncc(CN4CCC4)c3)cc12 [Compound 1271, 5-(5-(Azetidin-1-ylmethyl)pyridin-3-yl)-N-cyclopropyl-1H-indazole-3-carboxamide]"
11,11,"CN1CCC2(CC1)CC(NC(=O)c1n[nH]c3ccc(-c4cncc(F)c4)cc13)C2 [Compound 1277, 5-(5-Fluoropyridin-3-yl)-N-(7-methyl-7-azaspiro[3.5]nonan-2-yl)-1H-indazole-3-carboxamide]"
12,98,"O=C(NC1CCCC1)c1n[nH]c2ccc(-c3cncc(Cl)c3)cc12 [Compound 1279, 5-(5-Chloropyridin-3-yl)-N-cyclopentyl-1H-indazole-3-carboxamide]"
13,32,"O=C(NC1CCCC1)c1n[nH]c2ccc(-c3cncc(F)c3)cc12 [Compound 1280, N-Cyclopentyl-5-(5-fluoropyridin-3-yl)-1H-indazole-3-carboxamide]"
14,64,"O=C(NC1CCCCC1)c1n[nH]c2ccc(-c3cncnc3)cc12 [Compound 1281, N-Cyclohexyl-5-(pyrimidin-5-yl)-1H-indazole-3-carboxamide]"
15,22,"O=C(NC1CCCCC1)c1n[nH]c2ccc(-c3cncc(F)c3)cc12 [Compound 1282, N-Cyclohexyl-5-(5-fluoropyridin-3-yl)-1H-indazole-3-carboxamide]"
16,17,"O=C(NC1CCC(F)(F)CC1)c1n[nH]c2ccc(-c3cncc(F)c3)cc12 [Compound 1284, N-(4,4-Difluorocyclohexyl)-5-(5-fluoropyridin-3-yl)-1H-indazole-3-carboxamide]"
